Experimental data as given in publication PMC10766536 (The Journal of Antibiotics, 2023).
“Also recorded” adds a separate entry of the source. Blank lines part the entries; values can stand above or below the compound they belong to.

How the values were obtained:
[1] = molecular target: hERG (Homo sapiens, UniProt Q12809); test: in vitro
[2] = molecular target: P-gp (MDR1) (Homo sapiens, UniProt P08183); test: in vitro; details: dog, MDCK-MDR1
[3] = human
[4] = Compound stability in CYP induction assay
[5] = system: S. aureus NRS384; test: S. aureus broth killing (growth inhibition) assay; details: S. aureus NRS384, TSB, 24 h, OD600
Description: (§3) To test the potency of rifamycin analogs of the disclosure in vitro, a broth growth inhibition assay was developed.

[6] = in vitro; details: human, Caco-2
[7] = system: endogenous transporters; test: in vitro; details: human, Caco-2
[8] = molecular target: MDCK-MDR1: overexpression of Pgp (Homo sapiens, UniProt P08183); test: MDCK-MDR1 permeability and efflux
Chain of MDCK-MDR1: overexpression of Pgp (P08183 whole entry): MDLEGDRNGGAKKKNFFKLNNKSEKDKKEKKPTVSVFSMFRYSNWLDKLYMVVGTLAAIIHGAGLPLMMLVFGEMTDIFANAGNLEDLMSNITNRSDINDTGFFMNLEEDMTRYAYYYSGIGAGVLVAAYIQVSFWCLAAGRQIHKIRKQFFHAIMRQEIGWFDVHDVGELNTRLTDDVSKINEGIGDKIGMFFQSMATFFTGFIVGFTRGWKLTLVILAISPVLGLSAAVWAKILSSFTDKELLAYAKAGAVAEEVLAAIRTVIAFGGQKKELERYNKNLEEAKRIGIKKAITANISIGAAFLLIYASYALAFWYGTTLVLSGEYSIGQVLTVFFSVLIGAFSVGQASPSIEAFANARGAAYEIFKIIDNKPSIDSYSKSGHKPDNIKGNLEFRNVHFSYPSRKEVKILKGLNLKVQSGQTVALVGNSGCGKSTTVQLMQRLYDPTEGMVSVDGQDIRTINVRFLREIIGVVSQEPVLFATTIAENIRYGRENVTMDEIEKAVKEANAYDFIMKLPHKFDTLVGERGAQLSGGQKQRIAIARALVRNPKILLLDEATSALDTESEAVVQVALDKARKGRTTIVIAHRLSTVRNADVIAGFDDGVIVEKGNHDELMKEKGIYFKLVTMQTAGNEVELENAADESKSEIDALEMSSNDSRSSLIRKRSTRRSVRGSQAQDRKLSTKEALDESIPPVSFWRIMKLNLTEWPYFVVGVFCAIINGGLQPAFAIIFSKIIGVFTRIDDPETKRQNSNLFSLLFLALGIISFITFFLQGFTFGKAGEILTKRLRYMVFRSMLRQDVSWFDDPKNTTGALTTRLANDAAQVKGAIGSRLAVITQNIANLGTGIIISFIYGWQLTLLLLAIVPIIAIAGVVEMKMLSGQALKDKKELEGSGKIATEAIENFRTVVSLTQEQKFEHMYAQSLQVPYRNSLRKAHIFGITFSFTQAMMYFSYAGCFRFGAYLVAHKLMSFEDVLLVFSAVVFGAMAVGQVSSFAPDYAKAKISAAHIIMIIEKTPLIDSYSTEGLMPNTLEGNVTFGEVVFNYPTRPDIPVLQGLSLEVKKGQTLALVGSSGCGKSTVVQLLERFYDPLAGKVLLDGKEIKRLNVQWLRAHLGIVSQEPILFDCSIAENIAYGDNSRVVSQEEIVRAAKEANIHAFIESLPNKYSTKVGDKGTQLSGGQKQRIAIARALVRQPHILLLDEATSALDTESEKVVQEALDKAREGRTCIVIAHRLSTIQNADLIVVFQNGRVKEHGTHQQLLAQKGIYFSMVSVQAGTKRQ

[9] = in vitro; details: CD-1, mouse
[10] = system: Salmonella typhimurium AR-0031; test: S. typhimurium broth killing (growth inhibition) assay; details: Salmonella typhimurium AR-0031, TSB, 24 h
Description: as §3

[11] = system: Caco-2: endogenous transporters; test: Caco-2 permeability
[12] = in vitro; details: SD, rat
[13] = system: S. aureus NRS384; test: S. aureus intracellular killing assay in THP-1 macrophages; assay type: cell-based; details: S. aureus NRS384 in THP-1 macrophages, 2 h, top conc. 1e−6 M
Protocol: (§1) THP-1 monocytic cell line (American Type Culture Collection) was grown in media (RPMI + 10% FBS + 1% Penicillin/Streptomycin), then seeded at a density of 1e5 cells/well in a 96 well plate and differentiated into macrophages for 3 days prior to infection using 200 nM PMA. Overnight culture of S. aureus or S. typhimurium was grown in RPMI or TSB, respectively, washed twice with PBS and resuspended at 1e7 cfu/ml in PBS. THP-1 were washed with warm media (RMPI without FBS) to remove the Penicillin/Streptomycin and then infected with the bacterial suspension at a multiplicity of infection of 10:1 (S. aureus:macrophages) or 5:1 (S. typhimurium:macrophages). Plates were centrifuged at 300 × g for 5 min to synchronize adhesion of the bacteria to the macrophages, then incubated at 37 °C for 2 h for S. aureus infection or 1 h for S. typhimurium infection. Free-floating bacteria were removed by washing twice with warm media and the remaining extracellular bacteria were killed by addition of media containing gentamicin (50 ug/ml). After 1 h, media was aspirated and the indicated compound was added to the S. aureus-infected macrophages in a dilution series starting at 1e−6 M, with 1:5 dilutions for 6 points (1.0 × 10^−6 M, 2.0 × 10^−7 M, 4.0 × 10^−8 M, 8.0 × 10^−9 M, 1.6 × 10^−9 M, and 3.2 × 10^−10 M) or to the to the S. typhimurium-infected macrophages in a dilution series starting at 1e−4 M, with 1:3 dilutions followed by 1:10 dilutions for 6 points (1.0 × 10^−4 M, 3.0 × 10^−5 M, 1.0 × 10^−5 M, 1.0 × 10^−6 M, 1.0 × 10^−7 M, and 1.0 × 10^−8 M). The compounds were added in media containing 50 µg/ml gentamicin to prevent extracellular growth of bacteria. After 2 h, plates were washed twice with warm RPMI without FBS, and 100 μl of THP-1 lysis buffer (0.1% Triton in PBS) was added to each well. Bacterial survival was enumerated by colony forming units (cfu) through serial dilution and plating onto tryptic soy agar (TSA, Teknova) plates.

[14] = system: Salmonella typhimurium ATCC 14028; test: S. typhimurium broth killing (growth inhibition) assay; details: Salmonella typhimurium ATCC 14028, TSB, 24 h
Description: as §3

[15] = Human plasma protein binding
[16] = system: Salmonella typhimurium ATCC 14028; test: S. typhimurium intracellular killing assay in THP-1 macrophages; assay type: cell-based; details: Salmonella typhimurium ATCC 14028 in THP-1 macrophages, top conc. 1e−4 M
Protocol: as §1

[17] = system: Salmonella typhimurium AR-0031; test: as above; assay type: cell-based; details: Salmonella typhimurium AR-0031 in THP-1 macrophages, top conc. 1e−4 M
Protocol: as §1

[18] = system: S. aureus MRSA strain N315; test: S. aureus IV advanced disseminated infection mouse model, kidney burden; assay type: in vivo, Balb/c mice
Protocol: (§2) S. aureus MSRA strain NRS384 or N315 (BEI Resources), where indicated, was grown overnight in TSB and sub-cultured to mid-logarithmic phase. […] From 1 to 3 days post-infection, indicated mice were injected subcutaneously with 110 mg/kg vancomycin twice daily where indicated. […] Mice were monitored for weight loss and body conditioning score throughout the infection. At 4 days post-infection, mice were euthanized, and the S. aureus kidney burden was quantified by tissue homogenization followed by enumeration of cfu through serial dilution in PBS and plating onto TSA plates. Data points represent the kidney burden from individual mice tested. Statistical analysis was conducted with GraphPad Prism 9, Version 9.4.1.

[19] = system: S. aureus MRSA strain NRS384; test: as above; assay type: in vivo, Balb/c mice; details: for S. aureus kidney burden, efficacy: NRS384
Protocol: as §2

[20] = system: CYP3A4; test: in vitro; details: human
[21] = system: CYP2B6; test: in vitro; details: human
[22] = system: CYP1A2; test: in vitro; details: human
[23] = system: Sprague Dawley rats; test: 2-week IV once-a-day toxicity study with 2-week recovery in Sprague Dawley rats
Protocol: A subset from each dose group was maintained for 14 days after the last dose to evaluate delayed toxicity and/or recovery. All animals were observed twice daily for mortality and signs of pain or distress. Detailed clinical observations, body weight measurements and food consumption were conducted weekly; post dose observations (30 min post dose) were conducted daily or as required. Clinical pathology evaluations (hematology, coagulation parameters, and serum chemistry) were performed using samples collected on the day of scheduled sacrifice (main and recovery). At the end of the 14-day dosing period, and at the end of the 14-day recovery period, necropsies were performed on all animals, selected organs were weighed, and tissues were examined macroscopically and microscopically. Toxicokinetic parameters were evaluated on Day 1 and 14.

[24] = 25 mg/kg in combination with vancomycin

Chain of P-gp (MDR1) (P08183 whole entry): as above
Chain of hERG (Q12809 whole entry): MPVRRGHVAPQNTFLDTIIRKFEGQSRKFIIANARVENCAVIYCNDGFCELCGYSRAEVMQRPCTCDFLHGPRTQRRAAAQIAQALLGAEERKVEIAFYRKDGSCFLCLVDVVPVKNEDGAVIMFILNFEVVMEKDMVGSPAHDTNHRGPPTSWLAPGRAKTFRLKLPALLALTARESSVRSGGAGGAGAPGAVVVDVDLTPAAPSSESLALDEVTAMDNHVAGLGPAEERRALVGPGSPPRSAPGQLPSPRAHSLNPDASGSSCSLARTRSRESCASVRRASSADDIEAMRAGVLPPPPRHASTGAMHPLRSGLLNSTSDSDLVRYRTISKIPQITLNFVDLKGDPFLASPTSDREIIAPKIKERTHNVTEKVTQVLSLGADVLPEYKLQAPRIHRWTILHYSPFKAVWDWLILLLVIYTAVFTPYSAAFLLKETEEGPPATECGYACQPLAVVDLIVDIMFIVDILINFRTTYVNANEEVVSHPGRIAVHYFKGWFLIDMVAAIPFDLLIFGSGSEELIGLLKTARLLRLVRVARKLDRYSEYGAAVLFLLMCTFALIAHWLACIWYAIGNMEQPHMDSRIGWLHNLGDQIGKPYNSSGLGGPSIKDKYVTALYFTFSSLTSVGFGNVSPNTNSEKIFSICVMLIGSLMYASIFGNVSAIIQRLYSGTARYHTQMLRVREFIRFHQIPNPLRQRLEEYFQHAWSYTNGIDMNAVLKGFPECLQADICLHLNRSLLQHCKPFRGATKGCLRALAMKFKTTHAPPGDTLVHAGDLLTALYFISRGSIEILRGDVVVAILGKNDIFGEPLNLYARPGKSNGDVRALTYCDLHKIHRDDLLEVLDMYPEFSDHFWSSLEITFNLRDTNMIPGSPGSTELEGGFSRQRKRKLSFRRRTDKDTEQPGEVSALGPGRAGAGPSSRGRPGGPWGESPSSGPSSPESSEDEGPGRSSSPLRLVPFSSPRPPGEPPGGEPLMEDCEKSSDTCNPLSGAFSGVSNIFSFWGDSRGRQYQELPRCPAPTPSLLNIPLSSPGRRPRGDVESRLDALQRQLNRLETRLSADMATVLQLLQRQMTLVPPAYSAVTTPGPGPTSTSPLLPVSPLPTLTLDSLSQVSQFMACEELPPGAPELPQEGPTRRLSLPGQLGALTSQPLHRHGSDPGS

Compound: COc1cc(N)c(Cl)cc1C(=O)NC1CCN(CCCOc2ccc(F)cc2)CC1OC (centres unmarked) [Cisapride]
inhibition at 0.09 µM [1]: 87.6%

Papp A→B [2]: 0.287 ×10⁻⁶ cm/s
Papp B→A [2]: 6.25 ×10⁻⁶ cm/s
recovery [2]: 76.5%
% Recovery (vs. T0 stability) [3]: 81.9%
Average % Stability [4]: 85.2%
Papp A→B [6]: 0.589 ×10⁻⁶ cm/s
Papp B→A [6]: 5.93 ×10⁻⁶ cm/s
recovery [7]: 79.5%
Mean B-A % Recovery [8]: 74.40%
CLint scaled ([9]; S9 microsomes): < 45.5 mL/min/kg
remaining at 2 h ([9]; S9 microsomes): 125%
Mean B-A % Recovery [11]: 80.80%
CLint scaled ([12]; S9 microsomes): < 23.4 mL/min/kg
remaining at 2 h ([12]; S9 microsomes): 129%
% Protein Bound [15]: 79.1 ± 0.6%
% Protein Free [15]: 20.9 ± 0.6%
% Matrix Stability (6 h) [15]: 74.3%
Compound: CO[C@H]1/C=C/O[C@@]2(C)Oc3c(C)c(O)c4c(O)c(c(/C=N/N5CCN(C)CC5)c(O)c4c3C2=O)NC(=O)/C(C)=C\C=C\[C@H](C)[C@H](O)[C@@H](C)[C@@H](O)[C@@H](C)[C@H](OC(C)=O)[C@@H]1C [Compound 1, rifampicin]
Broth MIC [5]: 0.0156 µM
Broth MIC [10]: 16 µM
Intracellular MIC [13]: 1 µM
Broth MIC [14]: 16 µM
Intracellular MIC [16]: No activity
Intracellular MIC [17]: No activity
S. aureus kidney burden [18, 24]: to or near the limit of detection
S. aureus kidney burden, efficacy [19, 24]: effective; also recorded: reduced kidney burden
S. aureus kidney burden, efficacy ([19]; 25 mg/kg monotherapy): ineffective
S. aureus kidney burden, efficacy ([19]; doses lower than 0.25 mg/kg in combination with vancomycin): efficacy was reduced to vancomycin alone levels

Compound: COC1C=COC2(C)Oc3c(C)c(O)c4c(=O)c(c5oc6cc(OCCN)ccc6nc-5c4c3C2=O)NC(=O)C(C)=CC=CC(C)C(O)C(C)C(O)C(C)C(OC(C)=O)C1C (centres unmarked) [Compound 2]
Broth MIC [5]: 0.412 µM
Intracellular MIC [13]: 1 µM

Compound: CNCCOc1ccc2nc3c4c5c6c(C)c(O)c4c(=O)c(c-3oc2c1)NC(=O)C(C)=CC=CC(C)C(O)C(C)C(O)C(C)C(OC(C)=O)C(C)C(OC)C=COC(C)(O6)C5=O (centres unmarked) [Compound 3]
Broth MIC [5]: 0.0457 µM
Intracellular MIC [13]: 1 µM

Compound: COC1C=COC2(C)Oc3c(C)c(O)c4c(=O)c(c5oc6ccc(OCCN(C)C)cc6nc-5c4c3C2=O)NC(=O)C(C)=CC=CC(C)C(O)C(C)C(O)C(C)C(OC(C)=O)C1C (centres unmarked) [Compound 6]
Broth MIC [5]: 0.0625 µM
Intracellular MIC [13]: 1 µM

Compound: CO[C@H]1/C=C/O[C@@]2(C)Oc3c(C)c(O)c4c(c3C2=O)C2=NC3(CCN(CC(C)C)CC3)NC2=C(NC(=O)/C(C)=C\C=C\[C@H](C)[C@H](O)[C@@H](C)[C@@H](O)[C@@H](C)[C@H](OC(C)=O)[C@@H]1C)C4=O [Rifabutin]
Papp A→B [2]: 3.57 ×10⁻⁶ cm/s
Papp B→A [2]: 16.8 ×10⁻⁶ cm/s
efflux ratio [2]: 4.7
% Recovery (vs. T0 stability) [3]: 98.2%
Average % Stability [4]: 77.8%
Papp A→B [6]: 11 ×10⁻⁶ cm/s
Papp B→A [6]: 7.15 ×10⁻⁶ cm/s
efflux ratio [6]: 0.648
recovery [7]: 64.8%
Mean A-B % Recovery [8]: 91.30%
Mean B-A % Recovery [8]: 67.90%
CLint scaled ([9]; s9): 219 mL/min/kg
half-life ([9]; s9): 0.417 h
remaining at 2 h ([9]; s9): 4.6%
Mean B-A % Recovery [11]: 59.10%
fold induction [20]: 2.36
CLint scaled ([12]; s9): 2.35 mL/min/kg
half-life ([12]; s9): 19.9 h
remaining at 2 h ([12]; s9): 89%
fold induction [21]: 2.65
% Protein Bound [15]: 89.6 ± 0.5%
% Protein Free [15]: 10.4 ± 0.5%
% Matrix Stability (6 h) [15]: 104.9%
fold induction [22]: 2

Compound: CN[C@H](CC(C)C)C(=O)N[C@H]1C(=O)N[C@@H](CC(N)=O)C(=O)N[C@H]2C(=O)N[C@H]3C(=O)N[C@H](C(=O)N[C@H](C(=O)O)c4cc(O)cc(O)c4-c4cc3ccc4O)[C@H](O)c3ccc(c(Cl)c3)Oc3cc2cc(c3O[C@@H]2O[C@H](CO)[C@@H](O)[C@H](O)[C@H]2O[C@H]2C[C@](C)(N)[C@H](O)[C@H](C)O2)Oc2ccc(cc2Cl)[C@H]1O [Vancomycin, reference compound]
hematology changes (red cell mass decrease, neutrophil decrease, platelet increase) ([23]; males given vancomycin alone 110 mg/kg/day, end of treatment): also noted in males given vancomycin alone
body weight, body weight gains, food consumption changes ([23]; rat, IV QD 14 days, alone or in combination with vancomycin): no body weight, body weight gains, or food consumption changes
reduction in S. aureus kidney burden ([18]; vancomycin alone, 110 mg/kg sc twice daily): ~ 4 log
reduction in S. aureus kidney burden ([19]; vancomycin alone, 110 mg/kg sc twice daily days 1-3, NRS384, day 4): 2–3 log
